Measurements reported in PubChem BioAssay AID248 (DTP/NCI, 2004).
“And” between values parts separate entries of the source, which are not always exact repeats. Identical values can stand only once. Inconclusive results and toxic doses are left out. Cut-off read from the data, not from the text of the source: active = T/C of 150% or more; inactive = T/C below 125%.

Test system: L1210 leukemia ip in BDF1 mice, survival T/C
Assay: NCI In Vivo Anticancer Drug Screen. Data for tumor model L1210 Leukemia (intraperitoneal) in B6D2F1 (BDF1) mice
Conditions: endpoint: mean survival time, higher = longer survival
Procedure, shortened: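 Tumor cells were implanted, animals were treated, and survival was followed. The result divides the treated measurement by the vehicle-control measurement.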

[1] = dose: 25.0 mg/kg/injection, schedule: Q01DX009 (ip), vehicle: saline
[2] = dose: 25.0 mg/kg/injection, schedule: Q04DX003 (ip), vehicle: saline
[3] = dose: 50.0 mg/kg/injection, schedule: Q01DX009 (ip), vehicle: saline
[4] = dose: 100.0 mg/kg/injection, schedule: Q01DX009 (ip), vehicle: saline
[5] = dose: 200.0 mg/kg/injection, schedule: Q01DX009 (ip), vehicle: saline
[6] = dose: 400.0 mg/kg/injection, schedule: Q01DX009 (ip), vehicle: saline
[7] = dose: 100.0 mg/kg/injection, schedule: Q01DX009 (ip), vehicle: Klucel (hydroxypropylcellulose) (HPC)
[8] = dose: 200.0 mg/kg/injection, schedule: Q01DX009 (ip), vehicle: Klucel (hydroxypropylcellulose) (HPC)
[9] = dose: 400.0 mg/kg/injection, schedule: Q01DX009 (ip), vehicle: Klucel (hydroxypropylcellulose) (HPC)
[10] = dose: 100.0 mg/kg/injection, schedule: Q04DX003 (ip), vehicle: Klucel (hydroxypropylcellulose) (HPC)
[11] = dose: 200.0 mg/kg/injection, schedule: Q04DX003 (ip), vehicle: Klucel (hydroxypropylcellulose) (HPC)
[12] = dose: 400.0 mg/kg/injection, schedule: Q04DX003 (ip), vehicle: Klucel (hydroxypropylcellulose) (HPC)
[13] = dose: 100.0 mg/kg/injection, schedule: Q04DX002 (ip), vehicle: Klucel (hydroxypropylcellulose) (HPC)
[14] = dose: 200.0 mg/kg/injection, schedule: Q04DX002 (ip), vehicle: Klucel (hydroxypropylcellulose) (HPC)
[15] = dose: 400.0 mg/kg/injection, schedule: Q04DX002 (ip), vehicle: Klucel (hydroxypropylcellulose) (HPC)
[16] = dose: 100.0 mg/kg/injection, schedule: Q04DX003 (ip), vehicle: saline with Tween-80
[17] = dose: 200.0 mg/kg/injection, schedule: Q04DX003 (ip), vehicle: saline with Tween-80
[18] = dose: 400.0 mg/kg/injection, schedule: Q04DX003 (ip), vehicle: saline with Tween-80
[19] = dose: 50.0 mg/kg/injection, schedule: Q01DX009 (ip), vehicle: saline with Tween-80
[20] = dose: 100.0 mg/kg/injection, schedule: Q01DX009 (ip), vehicle: saline with Tween-80
[21] = dose: 200.0 mg/kg/injection, schedule: Q01DX009 (ip), vehicle: saline with Tween-80
[22] = dose: 400.0 mg/kg/injection, schedule: Q01DX009 (ip), vehicle: saline with Tween-80

Measured: T/C

C#CC(C)(C)OCC1CO1 (stereo unspecified)
inactive: [1] 93 % of control | [2] 101 % of control | [3] 90 % of control | dose: 50.0 mg/kg/injection, schedule: Q04DX003 (ip), vehicle: saline 113 % of control | [4] 102 % of control | dose: 100.0 mg/kg/injection, schedule: Q04DX003 (ip), vehicle: saline 108 % of control | [5] 108 % of control | dose: 200.0 mg/kg/injection, schedule: Q04DX003 (ip), vehicle: saline 95 % of control | [6] 93 % of control | dose: 400.0 mg/kg/injection, schedule: Q04DX003 (ip), vehicle: saline 106 % of control

O=[N+]([O-])c1ccc(S(=O)NOCc2ccccc2)cc1 (stereo unspecified)
inactive: [7] 96 % of control | [8] 94 % of control | [9] 91 % of control

CC1=C/C=C/C(C)C(O)C(C)C(O)C(C)C(O)C(C)C(O)C(C)CC=C(C)C(=O)c2c(O)c(C)cc3c2C(=O)C(C)=C(NC1=O)C3=O (stereo unspecified)
inactive: [10] 103 % of control | [11] 100 % of control | [12] 101 % of control

OCCOCCN1CCN(CCCN2c3ccccc3Sc3ccc(C(F)(F)F)cc32)CC1
inactive: dose: 1.6 mg/kg/injection, schedule: Q01DX009 (ip), vehicle: saline 104 % of control | dose: 6.25 mg/kg/injection, schedule: Q01DX009 (ip), vehicle: saline 117 % of control | dose: 9.5 mg/kg/injection, schedule: Q01DX001 (ip), vehicle: saline 100 % of control | dose: 12.5 mg/kg/injection, schedule: Q01DX009 (ip), vehicle: saline 93 % of control | dose: 12.5 mg/kg/injection, schedule: Q04DX003 (ip), vehicle: saline 114 % of control and 124 % of control | dose: 18.7 mg/kg/injection, schedule: Q04DX003 (ip), vehicle: saline 124 % of control | dose: 18.75 mg/kg/injection, schedule: Q01DX009 (ip), vehicle: saline 95 % of control | dose: 19.0 mg/kg/injection, schedule: Q01DX001 (ip), vehicle: saline 107 % of control | [1] 103 % of control | [2] 95 % of control and 118 % of control and 120 % of control | dose: 33.0 mg/kg/injection, schedule: Q04DX003 (ip), vehicle: saline 122 % of control | dose: 38.0 mg/kg/injection, schedule: Q01DX001 (ip), vehicle: saline 111 % of control | dose: 150.0 mg/kg/injection, schedule: Q04DX003 (ip), vehicle: saline 118 % of control | dose: 1.5 micrograms/kg/injection, schedule: Q01DX009 (ip), vehicle: saline 95 % of control | dose: 3.1 micrograms/kg/injection, schedule: Q01DX009 (ip), vehicle: saline 106 % of control | dose: 6.2 micrograms/kg/injection, schedule: Q01DX009 (ip), vehicle: saline 95 % of control | dose: 12.5 micrograms/kg/injection, schedule: Q01DX009 (ip), vehicle: saline 93 % of control | dose: 25.0 micrograms/kg/injection, schedule: Q01DX009 (ip), vehicle: saline 103 % of control | dose: 50.0 micrograms/kg/injection, schedule: Q01DX009 (ip), vehicle: saline 87 % of control | dose: 100.0 micrograms/kg/injection, schedule: Q01DX009 (ip), vehicle: saline 103 % of control | dose: 200.0 micrograms/kg/injection, schedule: Q01DX009 (ip), vehicle: saline 103 % of control
active: dose: 120.0 mg/kg/injection, schedule: Q04DX003 (ip), vehicle: saline 150 % of control

COc1ccc(OC)c(-n2cccc2C#N)c1
inactive: [13] 104 % of control | [14] 97 % of control | [15] 104 % of control

CCCCCCCCCCCCCCCCNC(=O)C[N+](C)(C)Cc1ccccc1
inactive: dose: 2.5 mg/kg/injection, schedule: Q01DX009 (ip), vehicle: saline with Tween-80 101 % of control | dose: 5.0 mg/kg/injection, schedule: Q01DX009 (ip), vehicle: saline with Tween-80 98 % of control

C=CCc1ccc(OC)c(OC)c1
inactive: dose: 100.0 mg/kg/injection, schedule: Q04DX002 (ip), vehicle: saline 97 % of control | dose: 200.0 mg/kg/injection, schedule: Q04DX002 (ip), vehicle: saline 95 % of control | dose: 400.0 mg/kg/injection, schedule: Q04DX002 (ip), vehicle: saline 104 % of control

O=C(Nc1ccc(F)cc1)Oc1ccccn1
inactive: dose: 100.0 mg/kg/injection, schedule: Q01DX001 (ip), vehicle: Klucel (hydroxypropylcellulose) (HPC) 101 % of control | [7] 95 % of control | [13] 94 % of control and 100 % of control | [10] 101 % of control | dose: 200.0 mg/kg/injection, schedule: Q01DX001 (ip), vehicle: Klucel (hydroxypropylcellulose) (HPC) 104 % of control | [8] 101 % of control and 87 % of control | [14] 94 % of control and 97 % of control | [11] 103 % of control | dose: 400.0 mg/kg/injection, schedule: Q01DX001 (ip), vehicle: Klucel (hydroxypropylcellulose) (HPC) 93 % of control | [9] 95 % of control and 96 % of control | [15] 94 % of control and 97 % of control | [12] 105 % of control

C(=NCC(CCN1CCCCC1)(CCN1CCCCC1)c1cccc2ccccc12)C(CCN1CCCCC1)(CCN1CCCCC1)c1cccc2ccccc12
inactive: dose: 5.0 mg/kg/injection, schedule: Q04DX003 (ip), vehicle: Klucel (hydroxypropylcellulose) (HPC) 119 % of control | dose: 10.0 mg/kg/injection, schedule: Q04DX003 (ip), vehicle: Klucel (hydroxypropylcellulose) (HPC) 114 % of control | dose: 20.0 mg/kg/injection, schedule: Q04DX003 (ip), vehicle: Klucel (hydroxypropylcellulose) (HPC) 110 % of control

NC(=O)NC1CCCC1
inactive: [16] 93 % of control | [17] 89 % of control | [18] 93 % of control

COc1ccc(NC(=O)CCC(=O)O)cc1
inactive: [19] 110 % of control | dose: 50.0 mg/kg/injection, schedule: Q04DX003 (ip), vehicle: saline with Tween-80 96 % of control | [20] 108 % of control | [16] 100 % of control | [21] 100 % of control | [17] 100 % of control | [22] 107 % of control | [18] 94 % of control

CCCCCCCCc1cc(Cl)c(O)c(Cl)c1
inactive: dose: 50.0 mg/kg/injection, schedule: Q01DX009 (ip), vehicle: Klucel (hydroxypropylcellulose) (HPC) 105 % of control | [7] 105 % of control | [8] 93 % of control

COC(=O)C(CO)NC(c1ccccc1)(c1ccccc1)c1ccccc1 (stereo unspecified)
inactive: [3] 91 % of control | [4] 95 % of control | [5] 92 % of control | [6] 97 % of control

CC(=O)OC1=C(C)C2=C3OC(=O)C(C)=C3CC[C@@]2(C)CC1
inactive: dose: 100.0 mg/kg/injection, schedule: Q01DX001 (ip), vehicle: saline 97 % of control | dose: 200.0 mg/kg/injection, schedule: Q01DX001 (ip), vehicle: saline 101 % of control | dose: 400.0 mg/kg/injection, schedule: Q01DX001 (ip), vehicle: saline 95 % of control

CCC(=O)CC1CCCC(CC(=O)CC)N1 (stereo unspecified)
inactive: dose: 75.0 mg/kg/injection, schedule: Q01DX001 (ip), vehicle: saline 96 % of control | dose: 150.0 mg/kg/injection, schedule: Q01DX001 (ip), vehicle: saline 104 % of control

CC1CC(=O)c2ccccc2N1S(C)(=O)=O (stereo unspecified)
inactive: [7] 95 % of control | [10] 102 % of control | [8] 95 % of control | [11] 102 % of control | [9] 101 % of control | [12] 94 % of control

CCCCCCCCCCCCCCCC(=O)N(CCC#N)CCCCN(CCC#N)C(=O)CCCCCCCCCCCCCCC
inactive: [19] 97 % of control and 106 % of control | [20] 93 % of control and 90 % of control | [21] 95 % of control and 102 % of control | dose: 300.0 mg/kg/injection, schedule: Q01DX009 (ip), vehicle: saline with Tween-80 92 % of control | [22] 98 % of control and 92 % of control | dose: 500.0 mg/kg/injection, schedule: Q01DX009 (ip), vehicle: saline with Tween-80 92 % of control
